# Paper PMC3776838, “Detection of Phospho-Sites Generated by Protein Kinase CK2 in CFTR: Mechanistic Aspects of Thr1471 Phosphorylation” (PLoS ONE, 2013)
# “Also recorded” adds a separate entry of the source.
# Experiments:
# CFTR wild type = experiment: De novo synthesized CFTR level after CHX wash-out with CK2 inhibitor, wild type; assay type: cell-based, human; conditions: BHK cells, 2 h CHX 100 µg/mL, washed, then 2 µM CX4945 for 2, 4, 8 h, Western blot, vs vehicle, Figure 5A
# Protocol: (§1) Baby hamster kidney cells (BHK) stably expressing human CFTR (hCFTR) either wild type (WT), or Phe508del, or WT T1471A were growth to reach 70–80% confluency. After 2 h-long treatment with 100 µg/mL cyclohexamide, cells were washed with PBS and incubated with 2 µM CX4945 or its vehicle for the indicated time. At each time-point cells were washed with ice-cold PBS, scraped from the plates, pelleted by centrifugation (1200 g for 5 min at room tempertaure) and lysed in a buffer containing 1% (v/v) Nonidet P40, 50 mM Tris/HCl (pH 7.5) and 150 mM NaCl with fresh protease inhibitor tablets (Roche), 1 µM Okadaic acid (Alexis) and phosphatases inhibitors cocktails 2 and 3 (Sigma). Cells were lysed by incubation on ice for 30 min and then the lysates were cleared by centrifugation at 17000 g for 30 min at 4°C. The supernatant was collected and subjected to protein concentration quantification.
# (§2) Western blot analysis was performed as described in [14] using a modified Laemmli buffer containing 105 mM dithiothreitol (final concentration) to enhance the solubilization of CFTR. […] Immunoblots were developed by enhanced chemiluminescence, detected on Kodak Image Station 440 cf and analyzed by the Kodak 1D image software. […]
# CFTR T1471A = experiment: De novo synthesized CFTR level after CHX wash-out with CK2 inhibitor, T1471A; assay type: cell-based, human; conditions: BHK cells; 2 h CHX 100 µg/mL, washed, then 2 µM CX4945 for 2, 4, 8 h; Western blot; vs vehicle; Figure 5B
# Protocol: as §1, §2
# Phe508delCFTR = experiment: De novo synthesized CFTR level after CHX wash-out with CK2 inhibitor, Phe508del; assay type: cell-based, human; conditions: BHK cells, washed; for effect on de novo synthesis / accumulation of Phe508delCFTR: 2 h CHX 100 µg/mL, then 2 µM CX4945 for 2, 4, 8 h, Western blot, vs vehicle, Figure 5C
# Protocol: as §1
# Western blot analysis was performed as described in [14] using a modified Laemmli buffer containing 105 mM dithiothreitol (final concentration) to enhance the solubilization of CFTR. 20–30 µg of total proteins were separated on 4–12% precast NuPage® Bis-Tris gradient gels (Invitrogen) according to the manufacturer’s instructions and transferred on to Optitran BA-S 83 nitrocellulose membranes (Whatman) with a semi-dry blotter (Biometra) for 1 h at 150 mA. Membranes were saturated for 1 h with 5% skimmed milk in Tris-buffered saline (TBS) containing 0.2% Tween 20. Immunoblots were developed by enhanced chemiluminescence, detected on Kodak Image Station 440 cf and analyzed by the Kodak 1D image software. […]
# In order to evaluate the efficacy of CX4945 on the level of de novo synthesized CFTR, protein synthesis was inhibited by two hours cell treatment with cycloheximide (CHX). Blockade was then removed by washing off CHX and newly synthesized CFTR was quantified after 2, 4, and 8 hrs incubation either in the absence or presence of CX4945. […] This point has been corroborated by performing the experiment in triplicate and drawing from it quantification of Phe508delCFTR band B, as reported in Panel D.
# CK2 = tested on: CK2; set-up: method as in PMID 21870818; conditions: ref [43]; cited from earlier work
compound,measurement,setting,value
O=C(O)c1ccc2c(c1)nc(Nc1cccc(Cl)c1)c1ccncc12 [CX4945],effect on de novo synthesis / accumulation of CFTR wild type,CFTR wild type,accumulates more abundantly than in the absence of CK2 inhibitor; also recorded: de novo synthesis of CFTR wild type is significantly stimulated
same,effect on de novo synthesis / accumulation of CFTR wild type,CFTR wild type; listed as CX-4945,the re-appearance of CFTR reached higher levels
same,effect on de novo synthesis of CFTR T1471A,CFTR T1471A,a similar effect of CX4945 being also detectable; also recorded: a similar effect of CX4945 was observed with CFTR wild type and its T1471A mutant
same,effect on de novo synthesis / accumulation of Phe508delCFTR,Phe508delCFTR,the efficacy of inhibiting CK2 is enhanced
same,effect on de novo synthesis / accumulation of Phe508delCFTR,Phe508delCFTR; listed as CX-4945,definitely more pronounced in the case of Phe508delCFTR
same,increment of Phe508delCFTR band B,"Phe508delCFTR; 2 h CHX, then 2 µM CX4945 vs vehicle, Western blot quantitation, experiments in triplicate, Figure 5D",two to three
same,selectivity for CK2,CK2,the most selective CK2 inhibitor available to date
